Laboratory results as given in patent US10479780B2, “Aminopyrazole derivatives” (Chugai Seiyaku Kabushiki Kaisha, priority 2015, dated 2019).
pIC50: −log10 of the molar value. Where two headings read alike, the source gives them in different places.

How the values were obtained:
Format in all cases: biochemical
[1] = biological target: T1, human Src enzyme (Homo sapiens, UniProt P12931); assay: Src enzyme inhibitory activity (time-resolved fluorometry, biotinylated peptide phosphorylation); settings: read-out: SRC_IC50
T1 construct: purchased Carna Biosciences, Inc. 08-173
T1 sequence (P12931 whole entry): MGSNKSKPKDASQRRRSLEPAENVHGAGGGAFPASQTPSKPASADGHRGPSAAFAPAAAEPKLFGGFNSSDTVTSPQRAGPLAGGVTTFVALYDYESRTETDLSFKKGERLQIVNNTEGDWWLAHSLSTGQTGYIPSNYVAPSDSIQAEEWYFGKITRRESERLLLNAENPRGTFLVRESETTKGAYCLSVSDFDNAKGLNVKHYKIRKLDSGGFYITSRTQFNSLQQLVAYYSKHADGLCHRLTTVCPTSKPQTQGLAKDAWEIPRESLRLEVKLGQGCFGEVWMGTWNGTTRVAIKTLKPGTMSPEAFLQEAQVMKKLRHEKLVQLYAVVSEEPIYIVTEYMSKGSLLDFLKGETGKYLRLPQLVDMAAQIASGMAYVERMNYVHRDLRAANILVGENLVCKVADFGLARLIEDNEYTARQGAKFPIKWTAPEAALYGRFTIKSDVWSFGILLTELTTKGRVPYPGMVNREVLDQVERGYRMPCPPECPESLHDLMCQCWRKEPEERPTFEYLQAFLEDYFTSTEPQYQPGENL
Description: (§1) 2. Src Enzyme Inhibitory Activity Src inhibitory activity was determined based on activity of inhibiting phosphorylation reaction of a biotinylated peptide (EGPWLEEEEEAYGWMDF) using a human Src enzyme (manufactured by Carna Biosciences, Inc., cat 08-173). The phosphorylated biotinylated peptide was detected by time-resolved fluorometry using an anti-phosphorylated tyrosine antibody conjugated to europium cryptate, and streptavidin conjugated to XL665, an allophycocyanin derivative. The 50% inhibitory concentration (IC50) was calculated from the inhibition rate relative to the control group without containing the test substance.

[2] = biological target: T2, human Yes1 enzyme (Homo sapiens, UniProt P07947); assay: Yes1 enzyme inhibitory activity (time-resolved fluorometry, biotinylated peptide phosphorylation); settings: read-out: YES_IC50
T2 construct: made in house
T2 sequence (P07947 whole entry): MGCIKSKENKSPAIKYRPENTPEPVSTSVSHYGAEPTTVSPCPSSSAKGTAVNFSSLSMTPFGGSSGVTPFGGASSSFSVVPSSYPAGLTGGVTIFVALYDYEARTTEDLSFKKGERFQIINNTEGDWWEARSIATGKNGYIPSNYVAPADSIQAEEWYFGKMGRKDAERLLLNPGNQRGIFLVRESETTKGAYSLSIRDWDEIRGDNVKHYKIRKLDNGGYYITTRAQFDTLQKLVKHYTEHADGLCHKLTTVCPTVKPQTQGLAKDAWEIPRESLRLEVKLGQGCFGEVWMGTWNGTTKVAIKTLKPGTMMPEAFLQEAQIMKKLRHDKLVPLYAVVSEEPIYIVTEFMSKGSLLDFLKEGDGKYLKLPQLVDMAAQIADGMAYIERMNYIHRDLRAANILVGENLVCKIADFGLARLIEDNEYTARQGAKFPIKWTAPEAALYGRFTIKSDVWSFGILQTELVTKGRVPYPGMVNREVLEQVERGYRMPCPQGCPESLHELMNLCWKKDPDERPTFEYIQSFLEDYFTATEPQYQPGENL
Description: as §1, with “1. Yes1” for “2. Src”, “Yes1” for “Src”, “prepared using a baculovirus expression system.” for “(manufactured by Carna Biosciences, Inc., cat 08-173).”

[3] = biological target: T3, human Lck enzyme (Homo sapiens, UniProt P06239); assay: Lck enzyme inhibitory activity (time-resolved fluorometry, biotinylated peptide phosphorylation); settings: read-out: LCK_IC50
T3 construct: purchased Carna Biosciences, Inc. 08-170
T3 sequence (P06239 whole entry): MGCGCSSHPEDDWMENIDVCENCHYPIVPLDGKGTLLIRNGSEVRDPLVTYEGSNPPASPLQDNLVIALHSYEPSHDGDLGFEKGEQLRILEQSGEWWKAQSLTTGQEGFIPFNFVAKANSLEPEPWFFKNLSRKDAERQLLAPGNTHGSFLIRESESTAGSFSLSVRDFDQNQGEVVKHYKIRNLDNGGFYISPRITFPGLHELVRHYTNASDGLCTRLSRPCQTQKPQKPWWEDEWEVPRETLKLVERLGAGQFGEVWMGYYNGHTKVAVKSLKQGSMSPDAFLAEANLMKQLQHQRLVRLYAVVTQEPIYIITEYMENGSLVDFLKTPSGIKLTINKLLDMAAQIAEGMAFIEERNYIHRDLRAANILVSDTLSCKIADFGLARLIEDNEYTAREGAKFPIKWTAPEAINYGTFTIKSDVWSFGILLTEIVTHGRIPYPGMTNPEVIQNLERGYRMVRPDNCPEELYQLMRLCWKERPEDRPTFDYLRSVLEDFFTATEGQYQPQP
Description: as §1, with “3. Lck” for “2. Src”, “Lck” for “Src”, “08-170).” for “08-173).”

[4] = biotinylated peptide phosphorylation

Structure (SMILES) | pIC50 [1] | pIC50 [2] | pIC50 [3] | pIC50 [1, 4] | pIC50 [2, 4] | pIC50 [3, 4]
Cc1cc(Oc2c(F)cccc2F)ncc1-n1ncc(C(=O)c2cc3cc(F)c(N4C(=O)C(C)(C)NC4=S)cc3[nH]2)c1N [Example 5-1-115, 3-[2-[5-amino-1-[6-(2,6-difluorophenoxy)-4-methylpyridin-3-yl]pyrazole-4-carbonyl]-5-fluoro-1H-indol-6-yl]-5,5-dimethyl-2-sulfanylideneimidazolidin-4-one] | 7.28 | 8.64 | 8.15 | – | – | –
Cc1cc2cc(C(=O)c3cnn(-c4cnc(Oc5ccccc5F)cc4C)c3N)[nH]c2cc1NS(=O)(=O)c1ccc2ccccc2c1 [Example 5-1-466, N-[2-[5-amino-1-[6-(2-fluorophenoxy)-4-methylpyridin-3-yl]pyrazole-4-carbonyl]-5-methyl-1H-indol-6-yl]naphthalene-2-sulfonamide] | – | – | – | 5.36 | 7.55 | 6.28
Cc1cc(Oc2ccccc2F)ccc1-n1ncc(C(=O)c2cc3cc(F)c(N4C(=O)CNC4=O)cc3[nH]2)c1N [Example 5-1-445, 3-[2-[5-amino-1-[4-(2-fluorophenoxy)-2-methylphenyl]pyrazole-4-carbonyl]-5-fluoro-1H-indol-6-yl]imidazolidine-2,4-dione] | – | – | – | 7.92 | 9.27 | 8.51
Cc1cc(Oc2ccccc2F)ncc1-n1ncc(C(=O)c2cc3cc(F)c(NS(=O)(=O)NC4CCOCC4)cc3[nH]2)c1N [Example 4-5-012, [5-amino-1-[6-(2-fluorophenoxy)-4-methylpyridin-3-yl]pyrazol-4-yl]-[5-fluoro-6-(oxan-4-ylsulfamoylamino)-1H-indol-2-yl]methanone] | – | – | – | 7.11 | 9.00 | 7.92
Cc1cc(Oc2ccccc2F)ccc1-n1ncc(C(=O)c2cc3cc(F)c(N4C(=O)N[C@@H](C(C)C)C4=O)cc3[nH]2)c1N [Example 5-1-447, (5S)-3-[2-[5-amino-1-[4-(2-fluorophenoxy)-2-methylphenyl]pyrazole-4-carbonyl]-5-fluoro-1H-indol-6-yl]-5-propan-2-ylimidazolidine-2,4-dione] | – | – | – | 7.08 | 8.70 | 7.92
Cc1cc(-n2ncc(C(=O)c3cc4cc(N5CCOCC5)c(NS(C)(=O)=O)cc4[nH]3)c2N)ccc1Oc1ccccc1F [Example 5-1-157, N-[2-[5-amino-1-[4-(2-fluorophenoxy)-3-methylphenyl]pyrazole-4-carbonyl]-5-morpholin-4-yl-1H-indol-6-yl] methanesulfonamide] | 5.96 | 8.72 | 6.32 | – | – | –
Cc1cc(Oc2ccccc2F)ccc1-n1ncc(C(=O)c2cc3cc(OCC(F)F)c(N4C(=O)NC5(CCN(C6COC6)C5)C4=O)cc3[nH]2)c1N (stereo not drawn) [Example 5-1-353, 3-(2-(5-amino-1-(4-(2-fluorophenoxy)-2-methylphenyl)-1H-pyrazole-4-carbonyl)-5-(2,2-difluoroethoxy)-1H-indol-6-yl)-7-(oxetan-3-yl)-1,3,7-triazaspiro[4.4]nonane-2,4-dione] | 7.14 | 8.26 | 7.85 | – | – | –
Cc1cc(Oc2c(F)cccc2F)ncc1-n1ncc(C(=O)c2cc3cc(F)c(N4CC(C)(C)NS4(=O)=O)cc3[nH]2)c1N [Example 5-1-398, [5-amino-1-[6-(2,6-difluorophenoxy)-4-methylpyridin-3-yl]pyrazol-4-yl]-[6-(4,4-dimethyl-1,1-dioxo-1,2,5-thiadiazolidin-2-yl)-5-fluoro-1H-indol-2-yl]methanone] | 7.02 | 8.62 | 7.70 | – | – | –
Cc1cc(Oc2ccccc2F)ccc1-n1ncc(C(=O)c2cc3cc(OCC(F)F)c(N4C(=O)[C@@H]5C[C@H](NC(=O)OCC6c7ccccc7-c7ccccc76)CN5C4=O)cc3[nH]2)c1N [Example 5-1-253, 9H-fluoren-9-ylmethyl N-[(6S,7aS)-2-[2-[5-amino-1-[4-(2-fluorophenoxy)-2-methylphenyl]pyrazole-4-carbonyl]-5-(2,2-difluoroethoxy)-1H-indol-6-yl]-1,3-dioxo-5,6,7,7a-tetrahydropyrrolo[1,2-c]imidazol-6-yl] carbamate] | 7.64 | 9.48 | 7.34 | – | – | –
Cc1cc2cc(C(=O)c3cnn(-c4ccc(Oc5ccccc5F)cc4C)c3N)[nH]c2cc1NS(=O)(=O)CC(=O)NC(C)C [Example 4-10-008, 2-[[2-[5-amino-1-[4-(2-fluorophenoxy)-2-methylphenyl]pyrazole-4-carbonyl]-5-methyl-1H-indol-6-yl]sulfamoyl]-N-propan-2-ylacetamide] | – | – | – | 7.27 | 8.70 | 8.02
Cc1cc(Oc2ccccc2F)ccc1-n1ncc(C(=O)c2cc3cc(OC4CCN(C(C)C)CC4)c(N4CCC(N5CCOCC5)CC4)cc3[nH]2)c1N [Example 5-1-194, [5-amino-1-[4-(2-fluorophenoxy)-2-methylphenyl]pyrazol-4-yl]-[6-(4-morpholin-4-ylpiperidin-1-yl)-5-(1-propan-2-ylpiperidin-4-yl)oxy-1H-indol-2-yl]methanone] | 8.82 | 9.46 | 8.92 | – | – | –
Cc1cc(Oc2c(F)cccc2F)ncc1-n1ncc(C(=O)c2cc3cc(OCC(F)F)c(Br)cc3[nH]2)c1N [Example 5-1-080, [5-amino-1-[6-(2,6-difluorophenoxy)-4-methylpyridin-3-yl]pyrazol-4-yl]-[6-bromo-5-(2,2-difluoroethoxy)-1H-indol-2-yl]methanone] | 7.43 | 8.48 | 7.85 | – | – | –
Cc1cc(Oc2c(F)cccc2F)ncc1-n1ncc(C(=O)c2cc3cc(F)c(NS(=O)(=O)c4cncc(F)c4)cc3[nH]2)c1N [Example 5-1-548, N-[2-[5-amino-1-[6-(2,6-difluorophenoxy)-4-methylpyridin-3-yl]pyrazole-4-carbonyl]-5-fluoro-1H-indol-6-yl]-5-fluoropyridine-3-sulfonamide] | – | – | – | 6.19 | 8.12 | 7.11
Cc1cc(Oc2c(F)cccc2F)ncc1-n1ncc(C(=O)c2cc3cc(F)c(N4C(=O)CNC4=O)cc3[nH]2)c1N [Example 5-1-405, 3-[2-[5-amino-1-[6-(2,6-difluorophenoxy)-4-methylpyridin-3-yl]pyrazole-4-carbonyl]-5-fluoro-1H-indol-6-yl]imidazolidine-2,4-dione] | – | – | – | 7.18 | 8.57 | 8.49
Cc1cc2cc(C(=O)c3cnn(-c4cnc(Oc5ccccc5F)cc4C)c3N)[nH]c2cc1NS(=O)(=O)NC1CCOCC1 [Example 5-1-057, [5-amino-1-[6-(2-fluorophenoxy)-4-methylpyridin-3-yl]pyrazol-4-yl]-[5-methyl-6-(oxan-4-ylsulfamoylamino)-1H-indol-2-yl] methanone] | 6.82 | 8.70 | 7.51 | – | – | –
Cc1cc(Oc2c(F)cccc2F)ncc1-n1ncc(C(=O)c2cc3cc(OC(F)F)c(-n4c(C)cc(=O)[nH]c4=O)cc3[nH]2)c1N [Example 5-1-072, 1-[2-[5-amino-1-[6-(2,6-difluorophenoxy)-4-methylpyridin-3-yl]pyrazole-4-carbonyl]-5-(difluoromethoxy)-1H-indol-6-yl]-6-methylpyrimidine-2,4-dione] | 7.44 | 8.11 | 8.09 | – | – | –
Cc1cc(Oc2c(F)cccc2Cl)ncc1-n1ncc(C(=O)c2cc3cc(F)c(NS(=O)(=O)CCCF)cc3[nH]2)c1N [Example 4-2-024, N-[2-[5-amino-1-[6-(2-chloro-6-fluorophenoxy)-4-methylpyridin-3-yl]pyrazole-4-carbonyl]-5-fluoro-1H-indol-6-yl]-3-fluoropropane-1-sulfonamide] | – | – | – | 7.22 | 8.68 | 7.92
COc1cc2cc(C(=O)c3cnn(-c4cnc(Oc5ccccc5F)cc4C)c3N)[nH]c2cc1NS(=O)(=O)CC(=O)N1CCCC1 [Example 4-10-014, N-[2-[5-amino-1-[6-(2-fluorophenoxy)-4-methylpyridin-3-yl]pyrazole-4-carbonyl]-5-methoxy-1H-indol-6-yl]-2-oxo-2-pyrrolidin-1-ylethanesulfonamide] | – | – | – | 7.54 | 9.27 | 8.00
Cc1cc(Oc2ccccc2F)ncc1-n1ncc(C(=O)c2cc3cc(F)c(NS(=O)(=O)c4cccc(F)n4)cc3[nH]2)c1N [Example 5-1-519, N-[2-[5-amino-1-[6-(2-fluorophenoxy)-4-methylpyridin-3-yl]pyrazole-4-carbonyl]-5-fluoro-1H-indol-6-yl]-6-fluoropyridine-2-sulfonamide] | – | – | – | 6.15 | 8.34 | 6.92
Cc1cc(Oc2ccccc2F)ncc1-n1ncc(C(=O)c2cc3cc(F)c(NS(=O)(=O)c4cccc(Cl)n4)cc3[nH]2)c1N [Example 5-1-529, N-[2-[5-amino-1-[6-(2-fluorophenoxy)-4-methylpyridin-3-yl]pyrazole-4-carbonyl]-5-fluoro-1H-indol-6-yl]-6-chloropyridine-2-sulfonamide] | – | – | – | 6.08 | 8.07 | 6.59
